Measurements taken from patent publication US20250000849A1, “COMPOSITE COMPOSITION CONTAINING ANGIOTENSIN RECEPTOR BLOCKER AND SGLT2 INHIBITOR” (MEDITAKE CO., LTD., priority 2021, published 2025).

Assays:
Assay type in all cases: in vivo
Design in all cases: unit not given here
[1] = test system: spontaneously hypertensive rat (SHR); experiment: Blood pressure-lowering effect of combined administration of angiotensin receptor blocker and dapagliflozin in SHR; settings: Dapagliflozin 1 mg/kg/day
Description: (§1) The animals were housed in a room with a temperature of […] relative humidity of 50±10%, and a 12-hour light/dark cycle, and food and water were provided ad libitum.
(§2) All data are expressed as mean±S.E.M. Blood pressure measurements were schematized using GraphPad Prism 9 (GraphPad Software Inc., San Diego, CA).
Blood pressure was measured daily immediately before (0 hr) and 4 hours after (4 hr) dosing while administering the drug for a total of 19 days, and the recovery of blood pressure was monitored during a 1-week recovery period after the end of administration.

[2] = test system: spontaneously hypertensive rat (SHR); experiment: Blood pressure-lowering effect of combined administration of angiotensin receptor blocker and empagliflozin in SHR; settings: Empagliflozin 1 mg/kg/day
Description: as §1, §2
Blood pressure was measured daily immediately before (0 hr) and 4 hours after (4 hr) dosing while administering the drug for a total of 19 days, and the recovery of blood pressure was monitored during a 1-week recovery period after the end of administration. Specifically, the animals were divided into two groups to evaluate the blood pressure response when fimasartan (Group 1) or dapagliflozin (Group 2) was administered alone, and to evaluate the blood pressure response to the addition of the other drugs in sequentially increasing doses, and the results are shown in FIG. 2.
The experiments were conducted in the same manner as in Example 3 above, but using empagliflozin as an SGLT2 inhibitor.
The angiotensin receptor blockers, fimasartan, azilsartan, and olmesartan were divided by dose, and each administered alone or in combination with empagliflozin, and the results of blood pressure measurements in each experimental group are shown in Table 4 and FIGS. 7 to 9 below.

[3] = test system: spontaneously hypertensive rat (SHR); experiment: as above; settings: Empagliflozin 1 mg/kg/day, Day 14 (4 h)

SMILES | Blood pressure, Mean ([1]; Day 1 (pre-dose)) | Blood pressure, Mean ([1]; Day 7 (4 h)) | Blood pressure, Mean ([1]; Day 14 (4 h)) | Blood pressure, Mean ([1]; Recovery) | Blood pressure, Mean ([2]; Day 1 (pre-dose)) | Blood pressure, Mean ([2]; Day 7 (4 h)) | Blood pressure, Mean ([2]; Recovery) | Blood pressure, Mean [3]
CCOc1ccc(Cc2cc([C@@H]3O[C@H](CO)[C@@H](O)[C@H](O)[C@H]3O)ccc2Cl)cc1 [Dapagliflozin, dapagliflozin] | 100.0 | 101.2 | 96.5 | 105.5 | – | – | – | –
OC[C@H]1O[C@@H](c2ccc(Cl)c(Cc3ccc(O[C@H]4CCOC4)cc3)c2)[C@H](O)[C@@H](O)[C@@H]1O [Empagliflozin, empagliflozin] | – | – | – | – | 100.0 | 97.1 | 101.8 | 96.4
